The subject of assay [1] is HXB2-strain of HIV in MT4 cells. Kind of assay: Antiviral assay: protection of HIV-infected MT4 cells from cell death (MTT). The class given is cell-based. To be noted: Human immunodeficiency virus 1; MT4 cells infected with HXB2-strain of HIV, MTT viability. The protocol:
Anti-HIV antiviral activity was assessed using an adaptation of the method of Pauwels et al. {Pauwels et al., 1988, J Virol Methods 20:309-321}. The method is based on the ability of compounds to protect HIV-infected T lymphoblastoid cells (MT4 cells) from cell-death mediated by the infection. The endpoint of the assay was calculated as the concentration of compound at which the cell viability of the culture was preserved by 50% (‘50% inhibitory concentration’, IC50). The cell viability of a culture was determined by the uptake of soluble, yellow 3-[4,5-dimethylthiazol-2-yl]-2,5-diphenyltetrazolium bromide (MTT) and its reduction to a purple insoluble formazan salt. After solubilization, spectrophotometric methods were employed to measure the amount of formazan product.
MT4 cells were prepared to be in logarithmic-phase growth and a total of 2×10^6 cells infected with the HXB2-strain of HIV at a multiplicity of 0.0001 infectious units of virus per cell in a total volume of between 200-500 microlitres. The cells were incubated with virus for one h at 37° C. before removal of virus. The cells are then washed in 0.01 M phosphate buffered saline, pH 7.2 before being resuspensed in culture medium for incubation in culture with serial dilutions of test compound. The culture medium used was RPMI 1640 without phenol red, supplemented with penicillin, streptomycin, L-glutamine and 10% fetal calf serum (GM10).
Test compounds were prepared as 2 mM solutions in dimethyl sulphoxide (DMSO). Four replicate, serial 2-fold dilutions in GM10 were then prepared and 50 microlitres amounts placed in 96-well plates over a final nanomolar concentration range of 625-1.22. Fifty microlitres GM10 and 3.5×10^4 infected cells were then added to each well. Control cultures containing no cells (blank), uninfected cells (100% viability; 4 replicates) and infected cells without compound (total virus-mediated cell death; 4 replicates) were also prepared. The cultures were then incubated at 37° C. in a humidified atmosphere of 5% CO2 in air for […].
A fresh solution of 5 mg/ml MTT was prepared in 0.01 M phosphate buffered saline, pH 7.2 and 20 microlitres added to each culture. The cultures were further incubated as before for 2 h. They were then mixed by pipetting up and down and 170 microlitres of Triton X-100 in acidified isopropanol (10% v/v Triton X-100 in 1:250 mixture of concentrated HCl in isopropanol). When the formazan deposit was fully solubilized by further mixing, the absorbance (OD) of the cultures was measured at 540 nm and 690 nm wavelength (690 nm readings were used as blanks for artefacts between wells). The percent protection for each treated culture was then calculated from the equation: [formula]
The IC50 was then obtained from graph plots of percent protection versus log10 drug concentration.

In another assay the target is HIV-1 RT (Human immunodeficiency virus type 1 group M subtype B, UniProt P04585). The assay can be described thus: HIV-1 Reverse Transcriptase Assay: Inhibitor IC50 Determination. It counts as biochemical. To be noted: purified recombinant enzyme, poly(rA)/oligo(dT)16 template-primer. The protocol:
Assay Method: HIV-1 Reverse Transcriptase Assay: Inhibitor IC50 Determination
HIV-1 RT assay was carried out in 96-well Millipore filtermat NOB50 plates using purified recombinant enzyme and a poly(rA)/oligo(dT)16 template-primer in a total volume of 50 μL. The assay constituents were 50 mM Tris/HCl, 50 mM NaCl, 1 mM EDTA, 6 mM MgCl2, 5 μM dTTP, 0.1 μCi [^3H] dTTP, 5 μg/ml poly (rA) pre annealed to 2.5 μg/ml oligo (dT)16 and a range of inhibitor concentrations in a final concentration of 10% DMSO. Reactions were initiated by adding 5 nM HIV-1 RT and after incubation at 37° C. for 30 min, they were stopped by the addition of 50 μl ice cold 20% TCA and allowed to precipitate at 4° C. for 30 min. The precipitates were collected by applying vacuum to the plate and sequentially washing with 2×200 μl of 10% TCA and 2×200 μl 70% ethanol. Finally the plates were dried and radioactivity counted in a Wallac Microbeta 1450 after the addition of 15 μl scintillation fluid per well. IC50's were calculated by plotting % inhibition versus log10 inhibitor concentrations.

In the case of `CC(C)n1c(Oc2cc(Cl)cc(Cl)c2)c(CNCc2ccncc2)n(C)c1=O`, the IC50 turned out to be 108 nM in assay [1] and 2400 nM at HIV-1 RT. As for `CC(C)n1c(Sc2cc(Cl)cc(Cl)c2)c(CO)n(C)c1=O`, the IC50 at HIV-1 RT is 10000 nM.

For the molecule `CC(C)n1c(Sc2cc(Cl)cc(Cl)c2)c(Cc2ccncc2)n(C)c1=O`, the results for the IC50 (in assay [1]; at HIV-1 RT) were 7 nM and 313 nM, respectively. The like results for `CC(C)n1c(Sc2cc(Cl)cc(Cl)c2)c(COc2ccncc2)n(C)c1=O` were, in that order, 134 nM and 608 nM. The like results for `CC(C)n1c(Sc2ccccc2)c(CNCc2ccccc2)n(C)c1=O` were, in that order, 44 nM and 730 nM.

`CCn1c(Cc2ccncc2)c(Sc2cc(Cl)cc(Cl)c2)n(C(C)C)c1=O`: the concentration for half-maximal inhibition (IC50) on HIV-1 RT came out at 649 nM. In the case of `CCC(C)Sc1c(CNCc2ccncc2)n(C)c(=O)n1C(C)C` (centres unmarked), the IC50 at HIV-1 RT is 1910 nM. Take `CC(C)n1c(Sc2cc(Cl)cc(Cl)c2)c(CNCc2ccncc2)n(C)c1=O`: the IC50 is 7 nM in assay [1] and 90 nM at HIV-1 RT. Turning to `CC(C)n1c(Sc2ccccc2)c(CNCc2ccncc2)n(C)c1=O`, the 50% inhibitory concentration (IC50) came to 32 nM in assay [1] and 520 nM at HIV-1 RT.

As to `COc1cccc(Sc2c(CNCc3ccncc3)n(C)c(=O)n2C(C)C)c1`, the half-inhibitory concentration (IC50) at HIV-1 RT stood at 3340 nM. Still for that read-out and setting: in the case of `CC(C)n1c(Sc2cc(Cl)cc(Cl)c2)c(CCc2ccccc2)n(C)c1=O` it was 1160 nM. With `CC(C)n1c(Sc2cc(Cl)cc(Cl)c2)c(COCc2ccncc2)n(C)c1=O`, the half-maximal inhibitory concentration (IC50) in assay [1] came to 4 nM; at HIV-1 RT, 171 nM. As for `CC(C)n1c(Sc2cc(Cl)cc(Cl)c2)c(/C=C/C#N)n(C)c1=O`, at HIV-1 RT, the IC50 came out at 1920 nM. On the same count and under the same terms, in the case of `Cn1c(COCc2ccccc2)c(Sc2cc(Cl)cc(Cl)c2)n(-c2ccccc2)c1=O` it was 10000 nM. With `CC(C)n1c(Sc2cc(Cl)cc(Cl)c2)c(COCc2cccnc2)n(C)c1=O`, the IC50 in assay [1] was determined as 5 nM; at HIV-1 RT, 115 nM.

As a reminder, the IC50 is the concentration needed to halve the response being measured.

The values are drawn from patent publication US6518293B2, “Anti-HIV imidazolone derivatives” (Hoffmann-La Roche Inc., priority 2000, dated 2003).
